{
  "source": "patent US11654169B2",
  "about": "“Methods for protecting skin and/or promoting wound healing” (SINPHAR PHARMACEUTICAL CO., LTD., priority 2016, dated 2023)",
  "format_in_all_cases": "cell-based",
  "key": {"[1]": {"test_system": "normal primary human skin fibroblastic cells", "test": "Intracellular content of collagen in fibroblasts (Western blot and ELISA), relative to control", "details": "48 hours; for relative intracellular content of collagen: control group = 100%; for intracellular contents of collagen as compared to the control group (in words): treated cells vs control group", "procedure": "(§1) The normal primary human skin fibroblastic cells (purchased from ATCC) were cultivated in a Fibroblast Growth Medium. The cells thus provided were used in the following experiments. […]\n(§2) The normal primary human skin fibroblastic cells provided by [Preparation Example C] were divided into 37 groups and were respectively cultivated with the following medium for 48 hours: • 1. Group 1: a Fibroblast Growth Medium • 2. Group 2-1 to 2-3: Fibroblast Growth Media containing the pachymic acid (PA) provided by [Preparation Example B] at a concentration of 0.01, 0.1 and 1 μM, respectively; • 3. Group 3-1 to 3-3: Fibroblast Growth Media containing the dehydropachymic acid (DPA) provided by [Preparation Example B] at a concentration of 0.01, 0.1 and 1 μM, respectively; • 4. Group 4-1 to 4-3: Fibroblast Growth Media containing the tumulosic acid (TA) provided by [Preparation Example B] at a concentration of 0.01, 0.1 and 1 μM, respectively; • 5. Group 5-1 to 5-3: Fibroblast Growth Media containing the dehydrotumulosic acid (DTA) provided by [Preparation Example B] at a concentration of 0.01, 0.1 and 1 μM, respectively; • 6. Group 6-1 to 6-3: Fibroblast Growth Media containing the polyporenic acid C (PAC) provided by [Preparation Example B] at a concentration of 0.01, 0.1 and 1 μM, respectively; • 7. Group 7-1 to 7-3: Fibroblast Growth Media containing the 3-epi-dehydrotumulosic acid (EDTA) provided by [Preparation Example B] at a concentration of 0.01, 0.1 and 1 μM, respectively; • 8. Group 8-1 to 8-3: Fibroblast Growth Media containing the dehydrotrametenolic acid (DTTA) provided by [Preparation Example B] at a concentration of 0.01, 0.1 and 1 μM, respectively; • 9. Group 9-1 to 9-3: Fibroblast Growth Media containing the trametenolic acid (TTA) provided by [Preparation Example B] at a concentration of 0.01, 0.1 and 1 μM, respectively; • 10. Group 10-1 to 10-3: Fibroblast Growth Media containing the poricoic acid A (PAA) provided by [Preparation Example B] at a concentration of 0.01, 0.1 and 1 μM, respectively; • 11. Group 11-1 to 11-3: Fibroblast Growth Media containing the dehydroeburicoic acid (DEA) provided by [Preparation Example B] at a concentration of 0.01, 0.1 and 1 μM, respectively; • 12. Group 12-1 to 12-3: Fibroblast Growth Media containing the poricoic acid B (PAB) provided by [Preparation Example B] at a concentration of 0.01, 0.1 and 1 μM, respectively; • 13. Group 13-1 to 13-3: Fibroblast Growth Media containing the eburicoic acid (EA) provided by [Preparation Example B] at a concentration of 0.01, 0.1 and 1 μM, respectively.\nThereafter, the cell medium of each group was collected and concentrated. Then, the intracellular content of collagen was measured and analyzed by Western blot and enzyme-linked immunosorbent assay (ELISA)."}, "[2]": {"test_system": "normal primary human skin fibroblastic cells", "test": "Content of collagen in cell medium (extracellular collagen) of fibroblasts (Western blot and ELISA), relative to control", "details": "48 hours; for relative content of collagen in the medium (extracellular content of collagen): control group = 100%; for extracellular contents of collagen (collagen in cell medium) as compared to the control group (in words): treated cells vs control group", "procedure": "The normal primary human skin fibroblastic cells (purchased from ATCC) were cultivated in a Fibroblast Growth Medium. The cells thus provided were used in the following experiments.\nThe normal primary human skin fibroblastic cells provided by [Preparation Example C] were divided into 4 groups and were respectively cultivated with the following medium for 48 hours: • 1. Group I: a Fibroblast Growth Medium; • 2.\n(§3) Thereafter, the cell medium of each group was collected and concentrated. Then, the intracellular content of collagen, the content of collagen in cell medium (i.e., extracellular content of collagen) and the content of hyaluronic acid in cell medium were measured and analyzed by Western blot and enzyme-linked immunosorbent assay (ELISA).\nas §2\nThe content of collagen in the medium of each group (i.e., extracellular content of collagen) was provided."}, "[3]": {"test_system": "normal primary human skin fibroblastic cells", "test": "Content of hyaluronic acid in cell medium of fibroblasts (Western blot and ELISA), relative to control", "details": "48 hours; for relative content of hyaluronic acid in the medium (extracellular content of hyaluronic acid): control group = 100%", "procedure": "as §1, §3, §2\nThe content of hyaluronic acid in the medium of each group (i.e., extracellular content of hyaluronic acid) was provided."}},
  "data": [
    {"smiles": "C=C(CCC(C(=O)O)[C@H]1[C@H](O)C[C@@]2(C)C3=CC[C@H]4C(C)(C)[C@@H](OC(C)=O)CC[C@]4(C)C3=CC[C@]12C)C(C)C", "note": "(stereo partly drawn) [Dehydropachymic acid (DPA), dehydropachymic acid]", "values": [
      {"measurement": "relative intracellular content of collagen", "setting": "[1]; 0.01 μM", "value": 154, "unit": "%"},
      {"measurement": "relative intracellular content of collagen", "setting": "[1]; 0.1 μM", "value": 188, "unit": "%"},
      {"measurement": "relative intracellular content of collagen", "setting": "[1]; 1 μM", "value": 122, "unit": "%"},
      {"measurement": "intracellular contents of collagen as compared to the control group (in words)", "setting": "[1]", "value": "significantly enhanced"},
      {"measurement": "relative content of collagen in the medium (extracellular content of collagen)", "setting": "[2]; 0.01 μM", "value": 124, "unit": "%"},
      {"measurement": "relative content of collagen in the medium (extracellular content of collagen)", "setting": "[2]; 0.1 μM", "value": 122, "unit": "%"},
      {"measurement": "relative content of collagen in the medium (extracellular content of collagen)", "setting": "[2]; 1 μM", "value": 116, "unit": "%"},
      {"measurement": "extracellular contents of collagen (collagen in cell medium) as compared to the control group (in words)", "setting": "[2]", "value": "significantly enhanced"},
      {"measurement": "relative content of hyaluronic acid in the medium (extracellular content of hyaluronic acid)", "setting": "[3]; 0.01 μM", "value": 111, "unit": "%"},
      {"measurement": "relative content of hyaluronic acid in the medium (extracellular content of hyaluronic acid)", "setting": "[3]; 0.1 μM", "value": 131, "unit": "%"},
      {"measurement": "relative content of hyaluronic acid in the medium (extracellular content of hyaluronic acid)", "setting": "[3]; 1 μM", "value": 152, "unit": "%"},
      {"measurement": "contents of hyaluronic acid as compared to the control group (in words)", "setting": "[3]; treated cells vs control group", "value": "significantly enhanced"},
      {"measurement": "contents of hyaluronic acid, ingredients singled out as stronger (in words)", "setting": "[3]; treated cells vs control group, compared with the other active ingredients", "value": "enhanced more significantly"}
    ]},
    {"smiles": "CC(C)=CCC[C@@H](C(=O)O)[C@H]1CC[C@@]2(C)C3=CC[C@H]4C(C)(C)[C@@H](O)CC[C@]4(C)C3=CC[C@]12C", "note": "[Dehydrotrametenolic acid (DTTA), dehydrotrametenolic acid]", "values": [
      {"measurement": "relative intracellular content of collagen", "setting": "[1]; 0.01 μM", "value": 190, "unit": "%"},
      {"measurement": "relative intracellular content of collagen", "setting": "[1]; 0.1 μM", "value": 174, "unit": "%"},
      {"measurement": "relative intracellular content of collagen", "setting": "[1]; 1 μM", "value": 118, "unit": "%"},
      {"measurement": "intracellular contents of collagen as compared to the control group (in words)", "setting": "[1]", "value": "significantly enhanced"},
      {"measurement": "relative content of collagen in the medium (extracellular content of collagen)", "setting": "[2]; 0.01 μM", "value": 117, "unit": "%"},
      {"measurement": "relative content of collagen in the medium (extracellular content of collagen)", "setting": "[2]; 0.1 μM", "value": 158, "unit": "%"},
      {"measurement": "relative content of collagen in the medium (extracellular content of collagen)", "setting": "[2]; 1 μM", "value": 131, "unit": "%"},
      {"measurement": "extracellular contents of collagen (collagen in cell medium) as compared to the control group (in words)", "setting": "[2]", "value": "significantly enhanced"},
      {"measurement": "relative content of hyaluronic acid in the medium (extracellular content of hyaluronic acid)", "setting": "[3]; 0.01 μM", "value": 99, "unit": "%"},
      {"measurement": "relative content of hyaluronic acid in the medium (extracellular content of hyaluronic acid)", "setting": "[3]; 0.1 μM", "value": 87, "unit": "%"},
      {"measurement": "relative content of hyaluronic acid in the medium (extracellular content of hyaluronic acid)", "setting": "[3]; 1 μM", "value": 108, "unit": "%"}
    ]}
  ]
}
